Patent US20240018153A1, “BENZENESULFONAMIDE DERIVATIVES AND USES THEREOF” (2692372 ONTARIO, INC., priority 2020, published 2024)

How the values were obtained:
BTK [1] = molecular target: T1, BTK (Homo sapiens (Human), UniProt Q06187); experiment: Jump dilution experiment, BTK; type: biochemical; conditions: 1.5-h incubation, 142 nM BTK, 10×IC50 compound, 100-fold dilution
Description: Sample containing only DMSO vehicle was used as a positive (full activity) control while sample with no enzyme was used as a negative (zero activity) control. After the preincubation, the mixture was diluted 100-fold into a reaction mixture containing 1 uM biotinylated substrate and 28 uM ATP and the reaction was allowed to proceed for various time points (2, 5, 10, 15, 20, 30, 45 and 60 min), at which the reaction was terminated by adding 1 ul of 0.5 M EDTA. 62.5 nM SA-XL665 and 100-fold diluted europium labelled antibody (Eu-Ab), diluted in 1× detection buffer, was added as detection mixture. After 60 min of incubation, the fluorescence emission was measured at 620 nm and 665 nm. The ratio of Em 665 nm to Em 620 nm was proportional to the amount of substrate phosphorylated by the kinase.

BTK [2] = molecular target: T1, BTK; experiment: Ramos RA1 cell lysis and immunoassay, total BTK degradation; type: cell-based; design: key to % BTK degradation (RAMOS, 24 h): Y: BTK bound in cells and BTK degradation occurred; concentration or dose not given beside the values; conditions: RAMOS cells
Method in brief: (§1)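 Ramos RA1 cells treated with compound or DMSO for 24 h at 37° C., lysed in RIPA, analysed by Simple Western. Total BTK normalised to β-actin, pBTK (Y223) to total-protein reagent; both expressed relative to DMSO control.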

EGFR = EGFR (Homo sapiens (Human), UniProt P00533); experiment: A549 cell lysis and immunoassay, phospho-EGFR (Y1068) inhibition; type: cell-based; design: key: X: EGFR bound and autophosphoration of EGFR inhibited in cells; conditions: A549 cells
Description: A549 cells (ATCC) were cultured in Dulbecco's Modified Eagle's Medium (DMEM) (Wisent) supplemented with 10% FBS and 1% penicillin/streptomycin. Cells were seeded in 6-well plates at 530,000 cells/well and incubated at 37° C., 5% CO2 for 16 hours. Cells were starved in DMEM containing 1% FBS for 4 hours before they were treated with the indicated concentrations of compound or DMSO alone and incubated at 37° C., 5% CO2 for 24 hours. Prior to cell harvest and lysis, 50 ng/ml human epidermal growth factor (hEGF) (Sigma) was added to the cells and incubated at 37° C., 5% CO2 for 10 minutes. Conditioned media was discarded, and adherent cells were washed with PBS before they were scraped on ice. Cell suspensions were centrifugated at 2,000 RPM for 5 minutes at 4° C. and supernatants were discarded. Cell pellets were resuspended with 1× RIPA buffer (Millipore) and incubated on ice for 15 minutes. Protein lysates were extracted by centrifugating at 20,000 RPM for 20 minutes at 4° C. Proteins were separated and total EGFR protein levels were quantified by Simple Western Immunoassay (ProteinSimple) using the Protein Normalization Assay Module for Jess according to the manufacturer's protocol, using a protein concentration of 0.125 μg/μl and an antibody targeting EGFR (clone #EP38Y, Abcam) diluted to 1:400. Phosphorylated EGFR protein levels were quantified with the same assay using a protein concentration of 1 μg/μl and an antibody targeting pEGFR (Y1068) (Cell Signalling) diluted to 1:25. EGFR and phosphorylated EGFR levels were normalized to the Jess Protein Normalization Reagent loading control and subsequently to the DMSO control.

BTK [3] = molecular target: T1, BTK; experiment: Time-dependent inhibition of BTK (HTRF); type: biochemical; conditions: pre-incubation 0-45 min; for Time-dependent inhibition of BTK: product formation versus pre-incubation time: mono-exponential decay fit
Description: For the time-dependent inhibition experiments, the activity of BTK kinases was monitored using a HTRF® KinEASE-TK kit from Cisbio (62TK0PEC) as described above. […] The pre incubation times were 0, 1, 3, 5, 10, 15, 30 and 45 min. After the preincubation, reaction was initiated by adding biotinylated substrate and ATP and the reaction was allowed to proceed for 45 min. […] After 60 min of incubation, the fluorescence emission was measured at 620 nm and 665 nm. The ratio of Em 665 nm to Em 620 nm was proportional to the amount of substrate phosphorylated by the kinase. Product formation vs pre-incubation time data were fitted to a one phase exponential decay equation using GraphPad Prism. The same product formation vs inhibitor concentration data were also fitted to a log(antagonist) vs. response—Variable slope equation in GraphPad Prism to provide IC50 values at different pre incubation times.

BTK [4] = molecular target: T1, BTK; experiment: Ramos RA1 cell lysis and immunoassay, phospho-BTK (Y223) inhibition; type: cell-based; design: key: X: BTK bound and autophosphoration of BTK inhibited in cells; conditions: RAMOS cells, compound concentration 1 μM
Method in brief: as §1

T1 sequence (Q06187 whole entry): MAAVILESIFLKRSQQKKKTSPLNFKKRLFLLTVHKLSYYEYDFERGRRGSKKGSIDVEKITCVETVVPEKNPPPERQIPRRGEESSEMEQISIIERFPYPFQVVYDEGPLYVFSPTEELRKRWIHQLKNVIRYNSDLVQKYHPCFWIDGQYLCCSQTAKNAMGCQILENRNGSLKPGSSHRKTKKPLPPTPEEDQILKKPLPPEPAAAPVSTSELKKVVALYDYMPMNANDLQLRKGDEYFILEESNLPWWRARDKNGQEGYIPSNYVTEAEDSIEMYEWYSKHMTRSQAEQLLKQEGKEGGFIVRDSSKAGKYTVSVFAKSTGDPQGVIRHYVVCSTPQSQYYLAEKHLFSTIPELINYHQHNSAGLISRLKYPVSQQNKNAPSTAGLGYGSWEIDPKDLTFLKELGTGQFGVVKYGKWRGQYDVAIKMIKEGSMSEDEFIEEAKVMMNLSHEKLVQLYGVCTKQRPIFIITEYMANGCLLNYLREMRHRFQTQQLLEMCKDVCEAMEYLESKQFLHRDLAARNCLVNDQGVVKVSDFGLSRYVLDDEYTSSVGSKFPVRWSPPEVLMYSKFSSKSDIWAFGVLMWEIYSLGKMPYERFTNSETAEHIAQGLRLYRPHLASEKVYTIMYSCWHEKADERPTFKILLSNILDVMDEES
EGFR, sequence (P00533 25-1210): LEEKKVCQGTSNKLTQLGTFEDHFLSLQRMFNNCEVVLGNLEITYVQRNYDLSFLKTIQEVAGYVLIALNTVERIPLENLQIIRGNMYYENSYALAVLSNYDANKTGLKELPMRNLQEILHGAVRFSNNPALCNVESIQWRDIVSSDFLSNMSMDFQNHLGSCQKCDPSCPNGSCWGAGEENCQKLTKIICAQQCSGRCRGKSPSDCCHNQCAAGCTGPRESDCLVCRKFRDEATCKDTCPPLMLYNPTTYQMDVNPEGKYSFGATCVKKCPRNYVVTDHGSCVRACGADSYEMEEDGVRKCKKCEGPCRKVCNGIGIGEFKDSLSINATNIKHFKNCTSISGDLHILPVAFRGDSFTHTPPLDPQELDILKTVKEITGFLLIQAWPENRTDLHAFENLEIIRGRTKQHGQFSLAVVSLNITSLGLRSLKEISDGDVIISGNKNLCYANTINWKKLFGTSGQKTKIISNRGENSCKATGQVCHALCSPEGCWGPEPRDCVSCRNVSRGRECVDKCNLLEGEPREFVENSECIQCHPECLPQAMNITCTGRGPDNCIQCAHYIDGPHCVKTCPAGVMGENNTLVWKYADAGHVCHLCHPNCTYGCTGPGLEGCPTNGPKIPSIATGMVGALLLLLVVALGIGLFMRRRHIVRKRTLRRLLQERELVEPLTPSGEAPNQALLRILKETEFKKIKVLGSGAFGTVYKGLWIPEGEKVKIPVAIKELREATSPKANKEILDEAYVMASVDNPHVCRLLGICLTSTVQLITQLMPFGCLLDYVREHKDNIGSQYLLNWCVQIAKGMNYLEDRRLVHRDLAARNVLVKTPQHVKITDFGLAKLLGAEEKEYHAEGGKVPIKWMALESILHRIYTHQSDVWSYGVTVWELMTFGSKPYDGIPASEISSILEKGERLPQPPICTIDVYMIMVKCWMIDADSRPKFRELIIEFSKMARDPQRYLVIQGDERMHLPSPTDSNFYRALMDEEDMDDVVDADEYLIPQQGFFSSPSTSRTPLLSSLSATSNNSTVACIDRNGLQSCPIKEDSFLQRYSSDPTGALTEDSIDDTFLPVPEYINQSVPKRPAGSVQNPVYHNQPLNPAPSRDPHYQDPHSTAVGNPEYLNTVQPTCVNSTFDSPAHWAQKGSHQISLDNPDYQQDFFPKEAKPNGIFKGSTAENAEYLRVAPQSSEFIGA

residual activity of BTK after jump dilution, relative to enzyme incubated with DMSO alone (BTK [1]) | % BTK degradation (RAMOS, 24 h) (BTK [2]) | pEGFR inhibition (A549, 1 μM, 24 h) (EGFR) | pEGFR inhibition (A549, compound concentration, 24 h) (EGFR; compound concentration 10 μM) | pBTK inhibition (RAMOS, 24 h) (BTK [4]) | pEGFR inhibition (A549, compound concentration, 24 h) (EGFR; compound concentration 5 μM) | SMILES | Time-dependent inhibition of BTK: product formation versus pre-incubation time (BTK [3]) | Time-dependent inhibition of BTK: IC50 values versus pre-incubation time (BTK [3])
less than 1% | Y | X | X | X |  | CN(CCn1nc(-c2ccc(Oc3ccccc3)cc2)c2c(N)ncnc21)C(=O)c1c(F)c(F)c(F)c(F)c1S(N)(=O)=O [Compound I-33, N-(2-(4-amino-3-(4-phenoxyphenyl)-1H-pyrazolo[3,4-d]pyrimidin-1-yl)ethyl)-2,3,4,5-tetrafluoro-N-methyl-6-sulfamoylbenzamide] | concentration-dependent first order loss of enzyme activity | decrease as pre-incubation times increase
less than 1% | Y | X | X | X |  | C[S@+]([O-])c1c(F)c(F)c(F)c(F)c1C(=O)N1CC(n2nc(-c3ccc(Oc4ccccc4)cc3)c3c(N)ncnc32)C1 (racemic) [Compound I-37, (3-(4-amino-3-(4-phenoxyphenyl)-1H-pyrazolo[3,4-d]pyrimidin-1-yl)azetidin-1-yl)(2,3,4,5-tetrafluoro-6-(methylsulfinyl)phenyl)methanone] | concentration-dependent first order loss of enzyme activity | decrease as pre-incubation times increase
less than 1% | Y | X |  | X | X | CN(C)S(=O)(=O)c1c(F)c(F)c(F)c(F)c1C(=O)NCCn1nc(-c2ccc(Oc3ccccc3)cc2)c2c(N)ncnc21 [Compound I-40, N-(2-(4-amino-3-(4-phenoxyphenyl)-1H-pyrazolo[3,4-d]pyrimidin-1-yl)ethyl)-2-(N,N-dimethylsulfamoyl)-3,4,5,6-tetrafluorobenzamide] | concentration-dependent first order loss of enzyme activity | decrease as pre-incubation times increase
